Data reported in patent US20120328696A1, “ANTI-PARKINSONIAN COMPOUND ACETYLSALICYLIC ACID MALTOL ESTER” (Hutecs Korea Pharmaceutical Co., Ltd., priority 2008, published 2012).

Key:
[1] = system: interleukin (IL)-6; assay: IL-6 expression after MA (western blot); assay type: in vivo; settings: p.o.; AME 50, EBS 20, rottlerin 20 mg/kg; MA 8 mg/kg i.p. x4; GPx-1 (+/+) and (−/−) mice
Description: The mice received four times of MA (8 mg/kg, ip) or saline as a 2 hr-time interval. Chemicals (AME, EBS, and PKC inhibitors) were administrated for 5 consecutive days (twice daily), and were given 2 times at 4 hr and 30 min before the first MA injection as shown in the experimental schedule. Animals were sacrificed at 4 hrs and 3 days after the final MA administration.
The western blot assays was performed as described previously (Kim et al., 2003). Tissues were homogenized in lysis buffer, containing 200 mM Tris HCl (pH 6.8), 1% SDS, 5 mM EGTA (ethylene glycol tetraacetic acid), 5 mM EDTA (ethylenediaminetetraacetic acid), 10% glycerol, 1× phosphatase inhibitor cocktail I, 1× protease inhibitor cocktail. Lysate was centrifuged at 12,000×g for 30 min and supernatant fraction was used for Western blot analysis. Proteins (20-50 ug/lane) were separated by 6%, 8%, 10% or 15% sodium dodecyl sulfate-polyacrylamide gel electrophoresis and transferred onto the PVDF membranes. Following transfer, the membranes were preincubated with 5% non-fat milk and incubated overnight at 4° C. with primary antibody against β-actin (1:50000, Sigma, St. Louis, Mo., USA), TH (1:5000, Chemicon), TH phosphor-Ser 19 (1:1000, Chemicon,), TH phosphor-Ser 31 (1:500, Chemicon), TH phosphor-Ser 40 (1:500, Chemicon), F4/80 (1:500, Serotec), GPx1 (1:2500, AbFrontier), PKC (1:5000, Santa Cruz biotechnology, Santa Cruz, Calif., USA), p53 (1:5000, Cell signaling, Beverly, Mass., USA), MDM2 (1:1000, BD Pharmingen, San Jose, Calif., USA), MDM2 phospho-Ser 166 (1:1000, cell signaling), BDNF (1:500, Chemicon), GDNF (1:250, Santa Cruz), COX-2 (1:2000, Cayman, Ann Arbor, MC, USA), IL-6 (1:2000, Abcam, Cambridge, Mass., USA), TNF-a (1:1000, R&D Systems, Mckinley place NE, NM, USA), IFN-γ (1:500, Chemicon) or Iba-1 (1:500, Wako, Osaka, Japan). And then, membranes were incubated with HRP-conjugated secondary anti-rabbit IgG (1:1000, GE healthcare, Piscataway, N.J., USA), anti-mouse IgG (1:1000, Sigma) or anti-goat IgG (1:1000, Sigma) for 2 h. […]

[2] = system: C57BL/6 mice; assay: Locomotor activity after MPTP; assay type: in vivo; settings: AME 25 mg/kg p.o.; MPTP 25 mg/kg i.p. once a day for 7 days; 3 days after final MPTP
Description: (§1) AME (25 mg/kg, p.o) administration was started 4 days (twice daily) before the first injection of MPTP and continued for 7 consecutive days (once a day). MPTP was injected (25 mg/kg, i.p) once a day 1 h after AME treatment for consecutive 7 days.
Locomotor activity measured for 30 min 3 days after the last MPTP administration using an automated video-tracking system (Noldus Information Technology, Wagenin, The Netherlands). Eight test boxes (40×40×30 cm high) were operated simultaneously by an IBM computer. Animals were studied individually during locomotion in each test box, where they were adapted for 5 min before starting the experiment. […] The distance traveled in cm by the animals in horizontal locomotor activity was analyzed. Data were collected and analyzed between 09:00 and 17:00 h (Kim et al., 2001).

[3] = system: dopamine (DA), DOPAC, HVA; assay: Striatal DA, DOPAC and HVA after MPTP (HPLC); assay type: in vivo, mice; settings: AME 25 mg/kg p.o., MPTP 25 mg/kg i.p. x7 days
Description: as §1
At 3 days after last MPTP injection, mice were killed by cervical dislocation. The brains were removed and placed on an ice-cooled plate. Striatum was dissected and immediately frozen on dry ice and stored at −70° C. until extraction. Brain regions obtained from each animal were weighed, ultrasonicated in 10% perchloric acid containing 10 ng/mg of the internal standard dihydroxybenzilamine, and centrifuged at 20,000×g for 10 min. The levels of DA and its metabolites 3,4-dihydroxyphenylacetic acid (DOPAC) and homovanillic acid (HVA) in brain tissue extracts were determined by HPLC coupled with electrochemical detection as described (Kim et al., 1999). Briefly, striatal tissues were sonicated in 0.2 M perchloric acid (20% W/V) containing the internal standard 3,4-dihydroxybenzylamine (10 mg wet tissue/ml). The homogenate was centrifuged and a 20 μl aliquot of the supernatant was injected into the HPLC equipped with a 3 μm C18 column. The mobile phase was comprised of 26 ml of acetonitrile, 21 ml of tetrahydrofuran and 960 ml of 0.15 M monochloroacetic acid (pH 3.0) containing 50 mg/l of EDTA and 200 mg/l of sodium octyl sulfate. The amount of DA, DOPAC and HVA were determined by comparison of peak height ratio of tissue sample with standards, and were expressed in nanograms per gram of wet weight of tissue.

[4] = Kim et al., 1997a; cited from earlier work
[5] = in vitro; Han et al., 1994; cited from earlier work

Compound | effect on MA-induced increase in IL-6 expression [1] | effect on MPTP-induced hypolocomotor activity [2] | effect on MPTP-induced increase in DA turnover rate ([3]; p<0.01 vs. MPTP alone) | effect on MPTP-induced reduction in striatal HVA ([3]; p<0.01 vs. MPTP alone) | effect on MPTP-induced reduction in striatal dopamine (DA) ([3]; p<0.01 vs. MPTP alone) | effect on MPTP-induced reduction in striatal DOPAC ([3]; p<0.05 vs. MPTP alone) | antithrombotic efficacy [4] | antioxidative efficacy [5]
CC(=O)Oc1ccccc1C(=O)Oc1c(C)occc1=O [AME, 3-(2-methyl-4-pyronyl)-2-acetyloxybenzoate] | significantly and consistently attenuating effects | significant attenuated | significant attenuated | significant attenuated | significant attenuated | significant attenuated | antithrombotic efficacy | antioxidative efficacy in vitro
O=c1c2ccccc2[se]n1-c1ccccc1 [EBS, 2-phenyl-1,2-benzisoselenazol-3(2H)-one] | significantly and consistently attenuating effects |  |  |  |  |  |  | 
CC(=O)c1c(O)c(C)c(O)c(Cc2c(O)c3c(c(C(=O)/C=C/c4ccccc4)c2O)OC(C)(C)C=C3)c1O [rottlerin] | significantly and consistently attenuating effects |  |  |  |  |  |  | 
